This passage reports IC50 results from patent publication US20230340011A1 (Asteroid Therapeutics, priority 2022, published 2023).

What is called IC50 is the point on the concentration scale where inhibition reaches its midpoint. Higher therefore signals weaker potency in that assay.

Structures are written as SMILES. Some results are limits rather than exact numbers.

For one experiment, the target named is SREBP-2 (Homo sapiens (Human), UniProt Q12772). Description: In vitro assay SREBP-2: PathHunter U2OS SREBP-2 Nuclear Translocation Cell Line, U18666A-stimulated. The format is cell-based.
Settings: not given
For `C[C@H](CCC(=O)N1CCN(C(=O)OC2COC2)CC1)[C@H]1CC[C@H]2[C@@H]3CC=C4C[C@@H](O)CC[C@]4(C)[C@H]3CC[C@]12C` [Example 425, oxetan-3-yl4-((R)-4-((3S,8S,9S,10R,13R,14S,17R)-3-hydroxy-10,13-dimethyl-2,3,4,7,8,9,10,11,12,13,14,15,16,17-tetradecahydro-1H-cyclopenta[a]phenanthren-17-yl)pentanoyl)piperazine-1-carboxylate], the IC50 is below 250 nM.

The same experiment, now with this note: PathHunter U2OS SREBP-2 nuclear translocation cells, U18666A 10 μM, overnight (16 hours).
Regarding `C[C@H](OC(=O)N(C)C)[C@H]1CC[C@H]2[C@@H]3CC=C4C[C@@H](O)CC[C@]4(C)[C@H]3CC[C@]12C` [Example 242, (1S)-1-[(1S,3aS,3bS,7S,9aR,9bS,11aS)-7-hydroxy-9a,11a-dimethyl-1H,2H,3H,3aH,3bH,4H,6H,7H,8H,9H,9aH,9bH,10H,11H,11aH-cyclopenta[a]phenanthren-1-yl]ethyl N,N-dimethylcarbamate], the IC50 fell in the range of 250 to 1000 nM.

`CON(C)C(=O)CC[C@@H](C)[C@H]1CC[C@H]2[C@@H]3CC=C4C[C@@H](O)CC[C@]4(C)[C@H]3CC[C@]12C` [Example 1, (R)-4-((3S,8S,9S,10R,13R,14S,17R)-3-hydroxy-10,13-dimethyl-2,3,4,7,8,9,10,11,12,13,14,15,16,17-tetradecahydro-1H-cyclopenta[a]phenanthren-17-yl)-N-methoxy-N-methylpentanamide] came in with an IC50 below 250 nM.

`C[C@H](CCC(=O)N1CCN(C2CC2)CC1)[C@H]1CC[C@H]2[C@@H]3CC=C4C[C@@H](O)CC[C@]4(C)[C@H]3CC[C@]12C` [Example 558, (4R)-4-[(1R,3aS,3bS,7S,9aR,9bS,11aR)-7-hydroxy-9a,11a-dimethyl-1H,2H,3H,3aH,3bH,4H,6H,7H,8H,9H,9aH,9bH,10H,11H,11aH-cyclopenta[a]phenanthren-1-yl]-1-(4-cyclopropylpiperazin-1-yl)pentan-1-one] returned a half-maximal inhibitory concentration (IC50) below 250 nM.

Take `C[C@H](CCC(=O)N1CCC(C(NS(C)(=O)=O)C(F)(F)F)CC1)[C@H]1CC[C@H]2[C@@H]3CC=C4C[C@@H](O)CC[C@]4(C)[C@H]3CC[C@]12C` (stereo partly drawn) [Example 476, N-(2,2,2-trifluoro-1-(1-((R)-4-((3S,8S,9S,10R,13R,14S,17R)-3-hydroxy-10,13-dimethyl-2,3,4,7,8,9,10,11,12,13,14,15,16,17-tetradecahydro-1H-cyclopenta[a]phenanthren-17-yl)pentanoyl)piperidin-4-yl)ethyl)methanesulfonamide]: the IC50 is below 250 nM.

The compound `C=CCN1C[C@H]2CON(C(=O)CC[C@@H](C)[C@H]3CC[C@H]4[C@@H]5CC=C6C[C@@H](O)CC[C@]6(C)[C@H]5CC[C@]34C)[C@H]2C1` [Example 45, (R)-1-((3aR,6aR)-5-allylhexahydro-1H-pyrrolo[3,4-c]isoxazol-1-yl)-4-((3S,8S,9S,10R,13R,14S,17R)-3-hydroxy-10,13-dimethyl-2,3,4,7,8,9,10,11,12,13,14,15,16,17-tetradecahydro-1H-cyclopenta[a]phenanthren-17-yl)pentan-1-one] displayed an IC50 of 250 to 1000 nM.

Take `C[C@H](CCC(=O)N1CCC([C@H](O)C(F)(F)F)CC1)[C@H]1CC[C@H]2[C@@H]3CC=C4C[C@@H](O)CC[C@]4(C)[C@H]3CC[C@]12C` [Example 468, (4R)-4-[(1R,3aS,3bS,7S,9aR,9bS,11aR)-7-hydroxy-9a,11a-dimethyl-1H,2H,3H,3aH,3bH,4H,6H,7H,8H,9H,9aH,9bH,10H,11H,11aH-cyclopenta[a]phenanthren-1-yl]-1-{4-[(1 S)-2,2,2-trifluoro-1-hydroxyethyl]piperidin-1-yl}pentan-1-one]: the IC50 was below 250 nM.

`C[C@H](CC[C@](O)(C1CC1)C(F)(F)F)[C@H]1CC[C@H]2[C@@H]3CC=C4C[C@@](C)(O)CC[C@]4(C)[C@H]3CC[C@]12C` [Example 368, (3S,8S,9S,10R,13R,14S,17R)-17-((2R,5S)-5-cyclopropyl-6,6,6-trifluoro-5-hydroxyhexan-2-yl)-3,10,13-trimethyl-2,3,4,7,8,9,10,11,12,13,14,15,16,17-tetradecahydro-1H-cyclopenta[a]phenanthren-3-ol] showed a half-inhibitory concentration (IC50) of 250 to 1000 nM.

Consider `C[C@H](CCC(=O)N1CCN(c2ncccn2)CC1)[C@H]1CC[C@H]2[C@@H]3CC=C4C[C@@H](O)CC[C@]4(C)[C@H]3CC[C@]12C` [Example 397, (R)-4-((3S,8S,9S,10R,13R,14S,17R)-3-hydroxy-10,13-dimethyl-2,3,4,7,8,9,10,11,12,13,14,15,16,17-tetradecahydro-1H-cyclopenta[a]phenanthren-17-yl)-1-(4-(pyrimidin-2-yl)piperazin-1-yl)pentan-1-one], for which the half-maximal inhibitory concentration (IC50) was below 250 nM.

The compound `CC(=O)N(C)C1CN(C(=O)CC[C@@H](C)[C@H]2CC[C@H]3[C@@H]4CC=C5C[C@@H](O)CC[C@]5(C)[C@H]4CC[C@]23C)C1` [Example 325, N-(1-((R)-4-((3S,8S,9S,10R,13R,14S,17R)-3-hydroxy-10,13-dimethyl-2,3,4,7,8,9,10,11,12,13,14,15,16,17-tetradecahydro-1H-cyclopenta[a]phenanthren-17-yl)pentanoyl)azetidin-3-yl)-N-methylacetamide] displayed an IC50 of 250 to 1000 nM.

Compound `CNC(=O)c1cccnc1OC[C@@H](C)[C@H]1CC[C@H]2[C@@H]3CC=C4C[C@@H](O)CC[C@]4(C)[C@H]3CC[C@]12C` [Example 451, 2-((S)-2-((3S,8S,9S,10R,13S,14S,17R)-3-hydroxy-10,13-dimethyl-2,3,4,7,8,9,10,11,12,13,14,15,16,17-tetradecahydro-1H-cyclopenta[a]phenanthren-17-yl)propoxy)-N-methylnicotinamide] registered a half-maximal inhibitory concentration (IC50) below 250 nM.

In the case of `Cc1cncc(O[C@@H](C)[C@H]2CC[C@H]3[C@@H]4CC=C5C[C@@H](O)CC[C@]5(C)[C@H]4CC[C@]23C)c1` [Example 272, (3S,8S,9S,10R,13S,14S,17S)-10,13-dimethyl-17-((S)-1-((5-methylpyridin-3-yl)oxy)ethyl)-2,3,4,7,8,9,10,11,12,13,14,15,16,17-tetradecahydro-1H-cyclopenta[a]phenanthren-3-ol], the IC50 was below 250 nM.

`C[C@H](COc1cc(CO)ccn1)[C@H]1CC[C@H]2[C@@H]3CC=C4C[C@@H](O)CC[C@]4(C)[C@H]3CC[C@]12C` [Example 446, (3S,8S,9S,10R,13S,14S,17R)-17-((S)-1-((4-(hydroxymethyl)pyridin-2-yl)oxy)propan-2-yl)-10,13-dimethyl-2,3,4,7,8,9,10,11,12,13,14,15,16,17-tetradecahydro-1H-cyclopenta[a]phenanthren-3-ol] yielded an IC50 below 250 nM.

With `C[C@H](CCC(=O)Nc1ccc(C(N)=O)cc1)[C@H]1CC[C@H]2[C@@H]3CC=C4C[C@@H](O)CC[C@]4(C)[C@H]3CC[C@]12C` [Example 556, 4-((R)-4-((3S,8S,9S,10R,13R,14S,17R)-3-hydroxy-10,13-dimethyl-2,3,4,7,8,9,10,11,12,13,14,15,16,17-tetradecahydro-1H-cyclopenta[a]phenanthren-17-yl)pentanamido)benzamide], the IC50 is below 250 nM.
